Tested on: UOK cells with/without FLCN expression
Test: Effect of low-concentration rapamycin on cell proliferation (preliminary data)
Settings: 1 nmol/L rapamycin; data not shown

CO[C@H]1C[C@@H]2CC[C@@H](C)[C@@](O)(O2)C(=O)C(=O)N2CCCC[C@H]2C(=O)O[C@H]([C@H](C)C[C@@H]2CC[C@@H](O)[C@H](OC)C2)CC(=O)[C@H](C)/C=C(\C)[C@@H](O)[C@@H](OC)C(=O)[C@H](C)C[C@H](C)/C=C/C=C/C=C/1C [rapamycin]
reduction on cell proliferation: 10%-15
